In patent publication US20240239752A1, “BICYCLIC HETEROAROMATIC INHIBITORS OF KLK5” (BioCryst Pharmaceuticals, Inc., priority 2021, published 2024):

Target: T1, recombinant human KLK5 (Homo sapiens, UniProt Q9Y337)
T1 construct: purchased Novoprotein or R&D Systems C415 or 1108-SE
T1 sequence (Q9Y337 23-293): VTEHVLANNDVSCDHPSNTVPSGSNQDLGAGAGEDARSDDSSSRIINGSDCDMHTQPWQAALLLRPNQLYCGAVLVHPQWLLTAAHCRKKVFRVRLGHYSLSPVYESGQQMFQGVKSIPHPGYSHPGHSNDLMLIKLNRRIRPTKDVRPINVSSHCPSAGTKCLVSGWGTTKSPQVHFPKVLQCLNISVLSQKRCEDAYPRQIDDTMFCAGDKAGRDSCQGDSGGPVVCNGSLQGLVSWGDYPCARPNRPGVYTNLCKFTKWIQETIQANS
Experiment: Kallikrein (KLK) 5 enzymatic assay (Boc-VPR-AMC fluorogenic substrate)
Format: biochemical
Details: recombinant human KLK5 0.1 μg/well, Boc-VPR-AMC 100 μM, pH 7.5, room temperature, 1% DMSO; tested a minimum of three times
In short: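 Fluorogenic rate assay at pH 7.5 (0.1 M NaH2PO4, 1% DMSO, room temperature), run at least three times per compound. Compound was premixed with 0.1 μg/well recombinant human KLK5 before adding 100 μM Boc-VPR-AMC; AMC release was read at ex 380/em 460 nm, and IC50 derived from inhibition of rate vs DMSO control.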

Compound	IC50 [nM]
COc1c(-c2ccc3c(c2)c(COc2ccccc2CC(=O)O)nn3C2CCC2)ccnc1CN [Compound 328d, 2-(2-((5-(2-(aminomethyl)-3-methoxypyridin-4-yl)-1-cyclobutyl-1H-indazol-3-yl)methoxy)phenyl)acetic acid]	1000 to 10000
COC(=O)N1CCC2(CC1)CC(Oc1c(C#N)cccc1CC(=O)O)c1cc(-c3cccc4c(N)nccc34)ccc12 (stereo not shown) [Compound 455b, 2-(2-((5-(1-aminoisoquinolin-5-yl)-1′-(methoxycarbonyl)-2,3-dihydrospiro[indene-1,4′-piperidin]-3-yl)oxy)-3-cyanophenyl)acetic acid]	1000 to 10000
Nc1nccc2ccc(-c3ccc4nn([C@H]5CCN(CCO)C5)c(COc5ccccc5CC(=O)O)c4c3)cc12 [Compound 113h, (S)-2-(2-((5-(1-aminoisoquinolin-7-yl)-2-(1-(2-hydroxyethyl)pyrrolidin-3-yl)-2H-indazol-3-yl)methoxy)phenyl)acetic acid]	1000 to 10000
CC(C)n1nc(COc2ccccc2CC(=O)O)c2cc(-c3ccc4cc(N)ccc4c3)ccc21 [Compound 36c, 2-(2-((5-(6-aminonaphthalen-2-yl)-1-isopropyl-1H-indazol-3-yl)methoxy)phenyl)acetic acid]	> 10000
CC(C)(C)OC(=O)N1CCC2(CC1)CC(Oc1ccccc1CC(=O)O)c1cc(-c3ccc4ccnc(N)c4c3)ccc12 (stereo not shown) [Compound 348b, 2-(2-((5-(1-aminoisoquinolin-7-yl)-1′-(tert-butoxycarbonyl)-2,3-dihydrospiro[indene-1,4′-piperidin]-3-yl)oxy)phenyl)acetic acid]	< 1000
Cc1cc(-c2ccc3ccnc(N)c3c2)cc2c1CCC2Oc1ccccc1CC(=O)O (stereo not shown) [Compound 205e, 2-(2-((6-(1-aminoisoquinolin-7-yl)-4-methyl-2,3-dihydro-1H-inden-1-yl)oxy)phenyl)acetic acid]	1000 to 10000
COc1c(CN)cccc1-c1ccc2c(c1)c(COc1ccccc1CC(=O)O)nn2C(C)C [Compound 325b, 2-(2-((5-(3-(aminomethyl)-2-methoxyphenyl)-1-isopropyl-1H-indazol-3-yl)methoxy)phenyl)acetic acid]	< 1000
N#Cc1cccc(O[C@@H]2CCc3ccc(-c4ccc5ccnc(N)c5c4)cc32)c1CC(=O)O [Compound 432c, (R)-2-(2-((6-(1-aminoisoquinolin-7-yl)-2,3-dihydro-1H-inden-1-yl)oxy)-6-cyanophenyl)acetic acid]	1000 to 10000
CC(C)CCN1CC(n2nc3ccc(-c4ccc5ccnc(N)c5c4)cc3c2COc2ccccc2CC(=O)O)C1 [Compound 124b, 2-(2-((5-(1-aminoisoquinolin-7-yl)-2-(1-isopentylazetidin-3-yl)-2H-indazol-3-yl)methoxy)phenyl)acetic acid]	1000 to 10000
COc1cccc(CC(=O)O)c1OCc1coc2c(OC)cc(-c3ccc4ccnc(N)c4c3)cc12 [Compound 267g, 2-(2-((5-(1-aminoisoquinolin-7-yl)-7-methoxybenzofuran-3-yl)methoxy)-3-methoxyphenyl)acetic acid]	> 10000
CC(C)n1nc(COc2ccccc2CC(=O)O)c2cc(-c3ccc4cc(N)ncc4c3)ccc21 [Compound 34c, 2-(2-((5-(3-aminoisoquinolin-7-yl)-1-isopropyl-1H-indazol-3-yl)methoxy)phenyl)acetic acid]	> 10000
Nc1nccc2c(-c3ccc4c(c3)[C@H](Oc3ccccc3CC(=O)O)CC4)cccc12 [Compound 216b, (R)-2-(2-((6-(1-aminoisoquinolin-5-yl)-2,3-dihydro-1H-inden-1-yl)oxy)phenyl)acetic acid]	< 1000
CC(C)n1nc(COc2ccccc2CC(=O)O)c2cc(-c3cccc(-c4nn[nH]n4)c3)ccc21 [Compound 47c, 2-(2-((5-(3-(2H-tetrazol-5-yl)phenyl)-1-isopropyl-1H-indazol-3-yl)methoxy)phenyl)acetic acid]	> 10000
Cc1ccc(CC(=O)O)c(OCc2nn(C)c3ccc(-c4cccc(C(=N)N)c4)cc23)c1 [Compound 104d, 2-(2-((5-(3-carbamimidoylphenyl)-1-methyl-1H-indazol-3-yl)methoxy)-4-methylphenyl)acetic acid]	< 1000
CCC(=O)N1CCC2(CC1)CC(Oc1ccccc1CC(=O)O)c1cc(-c3cccc4c(N)nccc34)ccc12 (single isomer, unassigned; (+)) [Compound 385d, (+)-2-(2-((5-(1-aminoisoquinolin-5-yl)-1′-propionyl-2,3-dihydrospiro[indene-1,4′-piperidin]-3-yl)oxy)phenyl)acetic acid]	< 1000
Nc1nccc2c(-c3ccc4c(c3)c(COc3ccccc3CC(=O)O)nn4-c3ccccc3)cccc12 [Compound 202b, 2-(2-((5-(1-aminoisoquinolin-5-yl)-1-phenyl-1H-indazol-3-yl)methoxy)phenyl)acetic acid]	< 1000

The remaining lines, values ahead:

IC50 [nM]	Compound
< 1000	COc1c(-c2ccc3nn(C4CCC4)c(COc4ccccc4CC(=O)O)c3c2)ccnc1C(=N)N [Compound 24b, 2-(2-((5-(2-carbamimidoyl-3-methoxypyridin-4-yl)-2-cyclobutyl-2H-indazol-3-yl)methoxy)phenyl)acetic acid]
< 1000	Nc1nccc2c(-c3ccc4c(c3)C(Oc3ccccc3CC(=O)O)CC43CCCCC3)cccc12 (stereo not shown) [Compound 376f, 2-(2-((5′-(1-aminoisoquinolin-5-yl)-2′,3′-dihydrospiro[cyclohexane-1,1′-inden]-3′-yl)oxy)phenyl)acetic acid]
< 1000	Nc1nccc2c(-c3ccc4c(c3)c(COc3ccccc3CC(=O)O)nn4C3CCOCC3)cccc12 [Compound 282b, 2-(2-((5-(1-aminoisoquinolin-5-yl)-1-(tetrahydro-2H-pyran-4-yl)-1H-indazol-3-yl)methoxy)phenyl)acetic acid]
< 1000	Nc1nccc2ccc(-c3ccc4[nH]nc(COc5ccccc5CC(=O)O)c4c3)cc12 [Compound 98a, 2-(2-((5-(1-aminoisoquinolin-7-yl)-1H-indazol-3-yl)methoxy)phenyl)acetic acid]
< 1000	Nc1nccc2c(-c3ccc4c(c3)c(COc3ccccc3CC(=O)O)nn4C3CCNC3)cccc12 (stereo not shown) [Compound 90a, 2-(2-((5-(1-aminoisoquinolin-5-yl)-1-(pyrrolidin-3-yl)-1H-indazol-3-yl)methoxy)phenyl)acetic acid]
< 1000	COC(=O)N1CCC2(CC1)CC(Oc1cc(C#N)ccc1CC(=O)O)c1cc(-c3cccc4c(N)nccc34)ccc12 (stereo not shown) [Compound 411b, 2-(2-((5-(1-aminoisoquinolin-5-yl)-1′-(methoxycarbonyl)-2,3-dihydrospiro[indene-1,4′-piperidin]-3-yl)oxy)-4-cyanophenyl)acetic acid]
< 1000	Nc1nccc2c(-c3ccc4c(c3)c(COc3ccccc3CC(=O)O)nn4C3CCC3)cccc12 [Compound 69b, 2-(2-((5-(1-aminoisoquinolin-5-yl)-1-cyclobutyl-1H-indazol-3-yl)methoxy)phenyl)acetic acid]
< 1000	COCCN1CCC(n2nc3ccc(-c4cccc5c(N)nccc45)cc3c2COc2ccccc2CC(=O)O)CC1 [Compound 134c, 2-(2-((5-(1-aminoisoquinolin-5-yl)-2-(1-(2-methoxyethyl)piperidin-4-yl)-2H-indazol-3-yl)methoxy)phenyl)acetic acid]
< 1000	CC(C)n1nc(COc2ccccc2CC(=O)O)c2cc(-c3cccc(C(=N)N)c3F)ccc21 [Compound 64d, 2-(2-((5-(3-carbamimidoyl-2-fluorophenyl)-1-isopropyl-1H-indazol-3-yl)methoxy)phenyl)acetic acid]
